Experimental data: patent US5460697A, “Method of pulping wood chips with a fungi using sulfite salt-treated wood chips” (priority 1994, dated 1995)
Entries after “also recorded” stand apart in the source; their conditions may differ.

Columns and labels:
[1] = tested on: indigenous microorganisms; assay: Contaminants level of sodium bisulfite-soaked aspen chips (plating before inoculation and at harvest); assay type: cell-based, endogenous microorganisms of aspen wood chips; conditions: for contaminants level at harvest (in words): fungus-treated chips with sodium bisulfite
Experimental: Three batches of aspen wood chips were prepared, each batch containing 1800 g dry weight of chips. One batch was soaked in 18 kg of water containing no sodium bisulfite. A second batch was soaked in 18 kg of water containing 28.125 g of sodium bisulfite. A third batch was soaked in 18 kg of water containing 56.250 g of sodium bisulfite. After the chips had soaked, we performed our experiments on 1600 g of chips (dry weight basis). The soaking was done at room temperature for about 1 hour. After soaking, water or sodium bisulfite solution was drained through a mesh. Based on the amount of water or sodium bisulfite solution absorbed by the chips, we calculated that 1600 g dry weight of chips retained about 600 or 1200 μg/ml of sodium bisulfite. Thus, there were three treatments: 1) chips without sodium bisulfite (water only), 2) chips containing 600 μg/ml of sodium bisulfite, and 3) chips containing 1200 μg/ml of sodium bisulfite.
Bioreactors containing soaked chips were left at room temperature for 48 h. U.S. Pat. No. 5,055,159 describes a suitable bioreactor. (U.S. Pat. No. 5,055,159 is hereby incorporated by reference.) Prior to inoculation, chips were pulled out from these bioreactors and plated on potato dextrose and tryptic soya agar plates to measure the contaminants level. These plates were incubated at 27° C. and 65% relative humidity for 24 h.
At harvest, fungus-treated chips with and without sodium bisulfite soaking were plated on potato dextrose and tryptic soya agar plates to determine the contaminants level. These plates were incubated at 27° C. and 65% relative humidity for 72 h. […] High level of sodium bisulfite (1200 μg/ml) caused only 1.7% wood loss, saved 18.4% of electrical energy, improved tear index by 15%, and fiber length by 26% as compared to the control.
We repeated the experiment described above with a four-week incubation. Four batches of aspen wood chips were prepared, each batch containing 3600 g dry weight of chips. One batch was soaked in 36 kg of water containing no sodium bisulfite. Second, third and fourth batches each were soaked in 36 kg of water containing 112.50 g of sodium bisulfite at room temperature for about 1 hour. After soaking, water or sodium bisulfite solution was drained through a mesh. Based on the amount of water or sodium bisulfite solution soaked, we calculated that each batch of 1600 g dry weight of chips retained about 1300 μg/ml of sodium bisulfite. Bioreactors containing soaked chips were left at room temperature for 48 h. The following eight treatments were made:
Prior to inoculation, chips were pulled out from the bioreactors and plated on potato dextrose and tryptic soya agar plates to determine the contaminants level. These plates were incubated at 27° C. and 65% relative humidity for 24 h. […]

[2] = Effluent toxicity (Microtox); conditions: for Toxicity Units (100/EC50): 1300 μg/ml BiS
Text: Evaluating biopulp effluents is an important factor in assessing the feasibility of this new pulping process. […] Because the composition of biopulp effluent is unknown, we selected a general toxicity test method, Microtox, as an appropriate method for the evaluation. Microtox analysis has been used satisfactorily as a rapid screening method for evaluating toxicity of pulp mill effluents Firth, B. and Backman, C. Tappi J., 75[12]169; 1991.
For each run, approximately 1.5-1.6 kg wood chips (oven dry weight basis) of each treatment from 4-week incubation samples, were fiberized in an atmospheric refiner and the pulp slurry was collected in 20-gallon plastic containers. The flow rate during refining operation was approximately 50 kg 90° C. water per kg chips (oven dry weight basis). A representative 5-gallon sample was taken from each slurry and filtered on a Buchner funnel to separate pulp from effluent (filtrate). Filtrates were cooled to 4° C. and pH was recorded. Chilled effluent samples were submitted for Microtox testing at National Council for Air and Stream Improvement according to standard Microtox procedures.

[3] = tested on: Phanerochaete chrysosporium BKM-F-1767; assay: Effect of sodium bisulfite on radial growth and mycelial dry weight of P. chrysosporium; assay type: cell-based
Experimental: (§1) 2% agar was added to the medium. The medium was autoclaved for 15 min. and the medium was poured into petri dishes. These plates were then inoculated with a plug cut into 8-mm diameter plugs from a petri dish containing a 5-day-old culture of P. chrysosporium or a petri dish containing a 10-day-old culture of another white-rot fungi. P. chrysosporium-inoculated plates were incubated at 39° C. Plates inoculated with other fungi were incubated at 27° C.

C. subvennispora CZ-3 = assay: Effect of sodium bisulfite on radial growth of white-rot fungi; assay type: cell-based, C. subvermispora; conditions: 500 μg/ml
Experimental: as §1

[4] = tested on: C. subvennispora FP-104027-T; assay: as above; assay type: cell-based, C. subvermispora; conditions: 500 μg/ml
Experimental: as §1

[5] = tested on: C. subvennispora FP-105752-sp; assay: as above; assay type: cell-based, C. subvermispora; conditions: 500 μg/ml
Experimental: as §1

[6] = tested on: C. subvennispora FP-90031-sp; assay: as above; assay type: cell-based, C. subvermispora; conditions: 500 μg/ml
Experimental: as §1

[7] = tested on: C. subvennispora L-14807-sp; assay: as above; assay type: cell-based, C. subvermispora; conditions: 500 μg/ml
Experimental: as §1

[8] = tested on: C. subvennispora L-15225-sp; assay: as above; assay type: cell-based, C. subvermispora; conditions: 500 μg/ml
Experimental: as §1

[9] = tested on: C. subvennispora L-6133-sp; assay: as above; assay type: cell-based, C. subvermispora; conditions: 500 μg/ml
Experimental: as §1

O=S([O-])O.[Na+] [Sodium Bisulfite]
endogenous microorganisms on chips (in words) ([1]; 1200 μg/ml, prior to inoculation, 48 h after soaking, 2-week experiment): no endogenous microorganisms | inhibition of microorganisms prior to inoculation (in words) ([1]; 1300 μg/ml, 4-week experiment): completely inhibited microorganisms | contaminants level at harvest (in words) ([1]; 2 weeks): almost no contamination | contaminants level at harvest (in words) ([1]; 4 weeks): almost no contamination | Toxicity Units (100/EC50) ([2]; Control 2: not A/C, no fungus): 15.4 Toxicity Units | Toxicity Units (100/EC50) ([2]; Control 4: A/C, no fungus): 16.1 Toxicity Units | Toxicity Units (100/EC50) ([2]; Treatment 2: not A/C, with fungus, 4-week incubation): 4.2 Toxicity Units | Toxicity Units (100/EC50) ([2]; Treatment 4: A/C, with fungus, 4-week incubation): 6.2 Toxicity Units | toxicity (in words) ([2]; at least 2-2.5 kg/ton of wood chips, unsterilized, vs control chips): less toxicity than from control chips | effluent toxicity (in words) ([2]; biopulp, treatment 2): least toxic effluent from biopulp | effluent toxicity (in words) ([2]; controls without fungus (control 2, control 4)): high effluent toxicity; also recorded: increased effluent toxicity of the non-autoclaved control chips | Mycelial Dry Weight 36 ± SD ([3]; 100 μg/ml): 21 ± 3 mg | Radial Growth 24 h ± SD ([3]; 100 μg/ml): 4.30 ± .26 cm | Radial Growth 36h ± SD ([3]; 100 μg/ml): 7.52 ± .27 cm | Mycelial Dry Weight 36 ± SD ([3]; 250 μg/ml): 39 ± 8 mg | Radial Growth 24 h ± SD ([3]; 250 μg/ml): 5.16 ± .28 cm | Radial Growth 36h ± SD ([3]; 250 μg/ml): 8.62 ± .20 cm | Mycelial Dry Weight 36 ± SD ([3]; 500 μg/ml): 36 ± 6 mg | Radial Growth 24 h ± SD ([3]; 500 μg/ml): 5.07 ± .25 cm | Radial Growth 36h ± SD ([3]; 500 μg/ml): 8.68 ± .09 cm | Mycelial Dry Weight 36 ± SD ([3]; 1000 μg/ml): 10 ± 2 mg | Radial Growth 24 h ± SD ([3]; 1000 μg/ml): 1.15 ± .22 cm | Radial Growth 36h ± SD ([3]; 1000 μg/ml): 2.88 ± .42 cm | dry weight of the fungus (in words) ([3]; 250 or 500 μg/ml): increased | radial growth (in words) ([3]; 250 or 500 μg/ml, 24 and 36 h): increased the radial growth of P. chrysosporium | growth of white-rot fungi such as P. chrysosporium (in words) ([3]; summary statement): promoted the growth of white-rot fungi | Radial growth 72h ± SD (C. subvennispora CZ-3; 72 h): 2.37 ± .12 cm | Radial growth 96h ± SD (C. subvennispora CZ-3; 96 h): 4.37 ± .15 cm | Radial growth 72h ± SD ([4]; 72 h): 3.63 ± .23 cm | Radial growth 96h ± SD ([4]; 96 h): 6.07 ± .46 cm | Radial growth 72h ± SD ([5]; 72 h): 2.13 ± .06 cm | Radial growth 96h ± SD ([5]; 96 h): 4.00 ± 00 cm | Radial growth 72h ± SD ([6]; 72 h): 3.20 ± .20 cm | Radial growth 96h ± SD ([6]; 96 h): 5.77 ± .31 cm | Radial growth 72h ± SD ([7]; 72 h): 2.60 ± .30 cm | Radial growth 96h ± SD ([7]; 96 h): 5.07 ± .31 cm | Radial growth 72h ± SD ([8]; 72 h): 1.63 ± .40 cm | Radial growth 96h ± SD ([8]; 96 h): 4.20 ± .72 cm | Radial growth 72h ± SD ([9]; 72 h): 2.37 ± .25 cm | Radial growth 96h ± SD ([9]; 96 h): 4.80 ± .20 cm
